The conditions of data set [1]: in vivo, ip, 1 mg/kg.
Protocol: (§2) Mice (n = 30), C57BL/6 males and females 8–10 weeks old weighing 20–25 g, purchased from Jackson Laboratories (Bar Harbor, ME) were used in this study. Mice were housed in ventilated racks in specific pathogen free conditions and were provided with food and water available ad libitum. M10 peptide was solubilized in water and administered intraperitoneally in a dose of 1 mg/kg. Mice were sacrificed by isoflurane overdose, and blood samples were collected by cardiac puncture in the presence of 0.01% of Na-Citrate at time intervals of 15 min, 30 min, 1, 2, 4, 6, 12, 24, and 48 hours after injection. The blood samples (n = 3/group) were centrifuged at 2500 rpm for 10 min, and plasma samples were stored at -80°C. Plasma samples collected from mice injected with water intraperitoneally (n = 3) were used as a negative control.
(§3) M10 concentration was measured by indirect ELISA developed in our laboratory. Known concentrations of pharmaceutical grade M10 peptide (GenScript, Piscataway, NJ) with purity more than 98% were used to generate the standard curve. Briefly, 100μl of known concentration of M10 (range: 10 ng/ml to 500 ng/ml), blank (PBS without M10), and 100μl of the diluted plasma sample were plated in triplicate in high-affinity polystyrene micro-titer plates. Samples were incubated with gentle rocking overnight at 4°C and blocked with 5% bovine serum albumin in PBS. After washing, samples were incubated for 2 hours at room temperature with anti-cMET rabbit antibody (Santa Cruz Biotechnology, Santa Cruz, CA), followed by 1hour incubation with HRP-conjugated anti-Rabbit IgG (Rockland, Limerick, PA). M10 was detected with ultra-TMB (3, 3’, 5, 5’-tetramethylbenzidine)-substrate, and the reaction was terminated by using 2M sulfuric acid. Absorbance was measured at 450 nm by Spectra Max Plus spectrophotometer. Concentrations of unknown samples were then calculated from their corresponding optical density (OD) values by Softmax Pro 4.8 software (Molecular Devices, Sunnyvale, CA) using the standard curve generated from the known concentrations of M10. Control plasma samples collected from mice with intraperitoneal water injection were run in triplicate with each experiment, mean was calculated, and samples were normalized by subtracting the negative control mean value. Final concentrations were calculated by adjusting the sample dilution factor.
(§4) To obtain the pharmacokinetic profile of M10 in mouse plasma, C57Bl6 mice were injected intraperitoneally with M10 at a dose of 1mg/kg of body weight. Plasma samples were collected by cardiac puncture in the presence of 0.01% of Na-Citrate at time intervals of 15 min, 30 min, 1h, 2h, 4h, 6h, 12 h, 24 h, and 48 h following injection. Samples were diluted in PBS in order to fit within the range of the standard curves and then tested using the M10 ELISA. Concentration of M10 in plasma samples was calculated by Softmax Pro 4.8 software using the standard curve generated from the known concentration of M10. The samples were normalized by subtracting the negative controls represented by plasma samples obtained from mice injected with H2O.
The nature of another data set: in vivo. Conditions: both, C57BL/6, mouse, ip, 1 mg/kg.
The subject of data set [2] is caspases, thrombin, factor Xa, trypsin and granzyme B. The following applies: cited from earlier work.
Data set [3] deals with human lung and skin fibroblasts. Conditions: cited from earlier work. From the text:
(§1) We recently discovered a 10 amino acid antifibrotic peptide (M10) with antifibrotic properties in vitro and in a murine model of lung fibrosis, which is a natural cleavage product by caspase-3 of the cytoplasmic tail of the c-MET receptor tyrosine kinase. Following binding of hepatocyte growth factor (HGF), c-MET undergoes auto phosphorylation at tyrosine residues in its cytoplasmic domain and initiates a cascade of signal transduction events leading to specific cellular responses implicated in embryonic development and tissue regeneration after injury.

The subject of data set [4] is bleomycin-induced mouse model of lung fibrosis. Conditions: cited from earlier work.
Text: as §1

Another data set concerns Smad2. The following applies: cited from earlier work.
Text: as §1

Where [5] appears, read: Mean M10 concentration in plasma.

Broadly, the AUC(0-t) is the area under the concentration-time curve up to a stated or last time point. A low value points to less exposure. The Tmax is the time at which the peak concentration occurs. Usually half-life stands for the time needed for the level to fall by half in the phase considered. Read a high half-life as slow decline.

Peptide text beside a SMILES is read from it.

Protocol for in vivo: as §2, §3, §4

On to `C[C@H](NC(=O)[C@@H]1CCCN1C(=O)[C@H](CCCNC(=N)N)NC(=O)[C@@H](N)[C@@H](C)O)C(=O)N[C@@H](CO)C(=O)N[C@@H](Cc1ccccc1)C(=O)N[C@@H](Cc1c[nH]c2ccccc12)C(=O)N[C@@H](CCC(=O)O)C(=O)N[C@H](C(=O)N[C@@H](CO)C(=O)O)[C@@H](C)O` [M10] (H-TRPASFWETS-OH; N-terminus and C-terminus assumed), for which the “Mean M10 concentration in plasma” value in data set [1] (both, C57BL/6, mouse, 24 h) amounted to 1216 ng/mL. Moreover, in data set [1] (mouse), the “Cmax (peak plasma concentration)” value is 4861.5 ± 11.5 ng/mL and the “Time by which plasma concentration declined to minimal (detectable) levels” value was at most 48 h. Moreover, in the data set “in vivo”, the AUC(0-t) was 72500 ± 2390 ng·h/mL, the time to peak (Tmax) is 6 h and the half-life was 6.8 ± 0.7 h. In the data set “in vivo” (setting [5]), the level at 4 h turned out to be 3590 ng/mL, the level at 6 h came to 4550 ng/mL, the level at 12 h is 3140 ng/mL and the level at 24 h came to 801 ng/mL. The level at 48 h in the data set “in vivo” (setting [5]) worked out at 366 ng/mL. In addition, the “Resistance to mammalian proteases” value in data set [2] is on record as “resistance to many mammalian proteases”. Also, in data set [3], the Effect on collagen result is “reduces collagen”. The Effect on collagen result in data set [4] was “reduces collagen”. The “Interaction with Smad2” value in the data set with Smad2 is reported as “interacts with Smad2”.

These data come from publication PMC5703532, “Establishment of an indirect ELISA for detection of the novel antifibrotic peptide M10” (PLoS ONE, 2017).
